# From the supplement of paper PMC10307832
# Columns and labels:
# Assay in all cases: relative viability (nuclei count vs DMSO), 5 days (fraction); higher = more cells survive
# Selisistat + AZD7762 = compound: C1CC(C2=C(C1)C3=C(N2)C=CC(=C3)Cl)C(=O)N [Selisistat] + NC(=O)Nc1cc(-c2cccc(F)c2)sc1C(=O)N[C@H]1CCCNC1 [AZD7762] (partner 0.2 µM)
# How it was run: (§1)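 Lung cancer cell lines in 1536-well plates were dosed by pin tool the day after seeding, either with one drug alone or with a fixed anchor-drug dose plus five library-drug doses (not always all listed) in √10 steps. After 5 days, cells were fixed and their nuclei stained in one step (final 0.05% Triton X-100, 1% formaldehyde, 1 ug/ml Hoechst), then counted on 4× images. Relative viability is the nuclei count in treated wells divided by that in vehicle wells. Values are medians of duplicate plates.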
# Selisistat + Tozasertib = compound: C1CC(C2=C(C1)C3=C(N2)C=CC(=C3)Cl)C(=O)N [Selisistat] + Cc1cc(Nc2cc(N3CCN(C)CC3)nc(Sc3ccc(NC(=O)C4CC4)cc3)n2)n[nH]1 [Tozasertib] (partner 0.1 µM)
# How it was run: as §1
# Selisistat + Pemetrexed = compound: C1CC(C2=C(C1)C3=C(N2)C=CC(=C3)Cl)C(=O)N [Selisistat] + Nc1nc2[nH]cc(CCc3ccc(C(=O)N[C@@H](CCC(=O)O)C(=O)O)cc3)c2c(=O)[nH]1 [Pemetrexed] (partner 0.2 µM)
# How it was run: as §1
# Serdemetan + Phenformin = compound: c1ccc2c(CCNc3ccc(Nc4ccncc4)cc3)c[nH]c2c1 [Serdemetan] + N=C(N)NC(=N)NCCc1ccccc1 [Phenformin] (partner 250 µM)
# How it was run: as §1
Cell Line,relative viability (Selisistat + AZD7762; first compound 0.4 µM),relative viability (Selisistat + AZD7762; first compound 1.265 µM),relative viability (Selisistat + AZD7762; first compound 4 µM),relative viability (Selisistat + AZD7762; first compound 12.65 µM),relative viability (Selisistat + AZD7762; first compound 40 µM),relative viability (Selisistat + Tozasertib; first compound 0.4 µM),relative viability (Selisistat + Tozasertib; first compound 1.265 µM),relative viability (Selisistat + Tozasertib; first compound 4 µM),relative viability (Selisistat + Tozasertib; first compound 12.65 µM),relative viability (Selisistat + Tozasertib; first compound 40 µM),relative viability (Selisistat + Pemetrexed; first compound 0.4 µM),relative viability (Selisistat + Pemetrexed; first compound 1.265 µM),relative viability (Selisistat + Pemetrexed; first compound 4 µM),relative viability (Selisistat + Pemetrexed; first compound 12.65 µM),relative viability (Selisistat + Pemetrexed; first compound 40 µM),relative viability (Serdemetan + Phenformin; first compound 0.04 µM),relative viability (Serdemetan + Phenformin; first compound 0.1265 µM),relative viability (Serdemetan + Phenformin; first compound 0.4 µM),relative viability (Serdemetan + Phenformin; first compound 1.265 µM),relative viability (Serdemetan + Phenformin; first compound 4 µM)
201T,0.644,0.623,0.7,0.602,0.659,0.945,0.95,0.873,0.919,0.935,0.325,0.299,0.364,0.343,0.324,0.435,0.451,0.432,0.353,0.432
A549,,,,,,,,,,,,,,,,0.0903,0.163,0.209,0.0895,0.0987
A-427,0.742,0.785,,0.725,0.757,0.207,0.194,0.182,0.226,0.183,0.996,1.04,,1.07,0.988,0.29,0.279,0.273,0.189,0.198
ABC-1,0.791,0.778,,0.829,1.08,0.184,0.179,0.17,0.176,0.149,,,,,,0.229,0.235,0.197,0.204,0.224
BEN,0.74,0.535,0.471,0.71,0.649,0.55,0.406,0.385,0.505,0.471,0.876,0.614,0.532,0.698,0.68,0.283,0.252,0.271,,0.267
CAL-12T,0.589,0.626,0.566,0.605,0.732,0.306,0.239,0.328,0.27,0.255,1.29,1.25,1.3,1.12,1.23,0.508,0.632,0.502,0.562,0.561
COR-L23,,,,,,0.243,0.241,0.218,0.171,0.183,0.182,0.212,0.193,0.19,0.2,0.448,0.468,0.427,0.414,0.42
COR-L 105,,,,,,0.344,0.344,,0.315,0.336,1.16,1.07,1.16,0.869,1.1,0.507,0.418,0.443,0.492,0.431
ChaGo-K-1,0.787,0.828,0.883,0.838,0.8,0.213,0.214,0.232,0.186,0.245,0.237,0.247,0.257,0.36,0.231,0.48,0.484,0.458,0.216,0.25
EKVX,0.682,0.732,0.705,0.699,0.802,0.352,0.37,0.421,0.376,0.369,0.348,0.314,0.361,0.342,0.404,0.225,0.243,0.14,,0.241
EMC-BAC-2,1.08,1.11,1.07,0.661,0.598,0.302,0.286,0.404,0.281,0.257,0.406,0.422,0.522,0.331,0.352,0.527,0.543,0.514,0.382,0.494
EPLC-272H,0.236,0.215,,0.318,0.336,0.265,0.231,,0.34,0.191,0.257,0.315,0.317,0.336,0.284,0.344,0.295,0.301,0.278,0.294
H3255,0.898,0.861,0.733,0.895,0.806,0.624,0.772,0.589,0.657,0.717,0.556,0.556,0.528,0.552,0.526,0.348,0.387,0.358,0.351,0.397
HARA,0.237,0.342,,0.364,0.219,0.137,0.12,0.119,0.154,0.1,0.266,0.27,,0.303,0.215,0.466,0.457,0.499,0.257,0.304
HCC-15,1.34,1.23,1.16,1.3,1.55,0.407,0.375,,0.311,0.252,0.241,0.222,,0.23,0.213,0.428,0.459,0.457,0.337,0.367
HCC-44,1,1.04,1.1,1.02,1.15,0.968,,,0.848,0.931,0.681,0.675,0.655,0.685,0.691,0.21,0.236,0.21,0.136,0.213
HCC-78,0.626,0.669,0.431,0.683,0.502,0.486,0.418,0.398,0.407,0.424,0.917,0.949,0.924,0.774,0.878,0.612,0.581,0.595,0.581,0.516
HCC-366,0.315,0.225,0.257,0.186,0.166,0.0912,0.131,0.064,0.0918,0.0529,0.136,0.184,0.193,0.146,0.164,0.665,0.627,0.547,0.0583,0.0869
